Experiment [1] addresses T1, r-LvMFBP (XP_027209752.1; methyl farnesoate-binding protein, MFBP).
T1 construct: recombinant, E. coli BL21-T1R, HisTALON (His-tag) purified; precursor 215 aa with 16 aa signal peptide, mature 199 aa
The experiment in a line: isothermal titration calorimetry. Details: species or system Penaeus vannamei. Conditions: 20 uM protein, 200 uM ligand, 20 mM Tris-HCl pH 7.5, 30 C.

The target is the same in experiment [2]. The experiment in a line: isothermal titration calorimetry (also surface plasmon resonance). On the set-up: species or system Penaeus vannamei. Conditions: ITC: 20 uM protein, 200 uM ligand, 20 mM Tris-HCl pH 7.5, 30 C; SPR: immobilized protein, PBST pH 7.4. In general terms: In ITC the heat of successive injections is recorded.

Structures are written as SMILES.

As to `CC(C)=CCC/C(C)=C/CC/C(C)=C/C(=O)O` [FA, farnesoic acid], binding in experiment [1] was put at a Kd of 630 µM.

`COC(=O)/C=C(\C)CC/C=C(\C)CCC=C(C)C` [MF, methyl farnesoate]: the Kd (commonly a measure of binding affinity in units of concentration) in experiment [2] worked out at 0.666 µM.

`COC(C)(C)CCCC(C)C/C=C/C(C)=C/C(=O)OC(C)C` (stereo not drawn) [Met, methoprene] returned a Kd in experiment [1] of 34.7 µM.

For the origin of these results see article PMC12256323, “Crustacean methyl farnesoate–binding protein is an insect juvenile hormone–binding protein homolog that inhibits molting” (The Journal of Biological Chemistry, 2025).
